Like-named read-outs stand apart in the source and are kept apart here.
Assays:
EGFR L858R/T790M = EGFR L858R/T790M (Homo sapiens, UniProt P00533, L858R/T790M); test: HTRF-based EGFR biochemical assay (L858R/T790M); conditions: 100 μM ATP, enzyme 0.02 nM
Protocol: (§1) EGFR biochemical activity measurements were carried out using the homogeneous time-resolved fluorescence (HTRF) assay (Cisbio). Inhibitors and DMSO normalizations were first dispensed to empty black low-volume 384-well plates (Corning) with D300 digital liquid dispenser (HP). All reactions were carried out at room temperature and solutions were added to plates with a Multidrop Combi Reagent Dispenser (ThermoFisher). The reaction mixture (10 μL final volume) contained 1 μM tyrosine kinase peptide-biotin substrate and mutant EGFR in a reaction buffer (50 mM HEPES pH 7.0, 5 mM MgCl2, 1 mM MnCl2, 0.01% BSA, 2 mM TCEP, 0.1 mM NaVO4). […] Enzyme reaction solution (2× concentrations, 5 μL) was added to 384-well plates containing compounds and incubated for 30 mins. Enzyme reactions were initiated with the addition of 5 μL of ATP to a final concentration of 100 μM and reacted for 20 mins.

EGFR L858R = EGFR L858R (Homo sapiens, UniProt P00533, L858R); test: HTRF-based EGFR biochemical assay (L858R); conditions: 100 μM ATP, enzyme 0.1 nM
Protocol: as §1, with “20 mins. Reactions were quenched with the addition of 10 μL of phospho-tyrosine antibody-Europium(III) cryptate (1-to-180 volume ratio) and Streptavidin-XL665 (46.7 nM) in EDTA-containing detection buffer, then incubated at room temperature for 1 hour, and read with a PHERAstar plate reader (excitation=337 nm, emission=620 nm and 665 nm).” for “20 mins.”

[1] = biological target: EGFR L858R/T790M mutant Ba/F3 cells (Homo sapiens, UniProt P00533, T790M/L858R, cells depend on it); test: Ba/F3 cell proliferation (Cell Titer Glo); assay type: cell-based, murine; conditions: 72 hours
From the text: All cell lines were maintained in RPMI 1640 (Cellgro; Mediatech Inc., Herndon, CA) supplemented with 10% FBS, 100 units/mL penicillin, 100 units/mL streptomycin. The EGFR I941R mutation was introduced via site directed mutagenesis using the Quick Change Site-Directed Mutagenesis kit (Stratagene; La Jolla, CA) according to the manufacturer's instructions. All constructs were confirmed by DNA sequencing. The constructs were shuttled into the retroviral vector JP1540 using the Cre-recombination system (Agilent Technologies, Santa Clara, CA). Ba/F3 cells were then infected with retrovirus per standard protocols, as described previously (Zhou, et al, Nature 2009). Stable clones were obtained by selection in puromycin (2 μg/ml).
Growth and inhibition of growth was assessed by the Cell Titer Glo assay (Promega, Madison, WI) and was performed according to the manufacturer's instructions. The Cell Titer Glo assay is a luminescence-based method used to determine the number of viable cells based on quantitation of the ATP present, which is directly proportional to the amount of metabolically active cells present. […] All experimental points were set up in triplicates in 384-well plates and all experiments were repeated at least three times. […] The curves were fitted using a non-linear regression model with a sigmoidal dose response.

[2] = in combination with 1 μg/ml cetuximab, read-out: Cell IC50 BaF3 L858R/T790M compound + cetuximab
[3] = single agent, read-out: Cell IC50 EGFR BaF3 L858R/T790M

Chain of EGFR L858R (P00533 25-1210 L858R): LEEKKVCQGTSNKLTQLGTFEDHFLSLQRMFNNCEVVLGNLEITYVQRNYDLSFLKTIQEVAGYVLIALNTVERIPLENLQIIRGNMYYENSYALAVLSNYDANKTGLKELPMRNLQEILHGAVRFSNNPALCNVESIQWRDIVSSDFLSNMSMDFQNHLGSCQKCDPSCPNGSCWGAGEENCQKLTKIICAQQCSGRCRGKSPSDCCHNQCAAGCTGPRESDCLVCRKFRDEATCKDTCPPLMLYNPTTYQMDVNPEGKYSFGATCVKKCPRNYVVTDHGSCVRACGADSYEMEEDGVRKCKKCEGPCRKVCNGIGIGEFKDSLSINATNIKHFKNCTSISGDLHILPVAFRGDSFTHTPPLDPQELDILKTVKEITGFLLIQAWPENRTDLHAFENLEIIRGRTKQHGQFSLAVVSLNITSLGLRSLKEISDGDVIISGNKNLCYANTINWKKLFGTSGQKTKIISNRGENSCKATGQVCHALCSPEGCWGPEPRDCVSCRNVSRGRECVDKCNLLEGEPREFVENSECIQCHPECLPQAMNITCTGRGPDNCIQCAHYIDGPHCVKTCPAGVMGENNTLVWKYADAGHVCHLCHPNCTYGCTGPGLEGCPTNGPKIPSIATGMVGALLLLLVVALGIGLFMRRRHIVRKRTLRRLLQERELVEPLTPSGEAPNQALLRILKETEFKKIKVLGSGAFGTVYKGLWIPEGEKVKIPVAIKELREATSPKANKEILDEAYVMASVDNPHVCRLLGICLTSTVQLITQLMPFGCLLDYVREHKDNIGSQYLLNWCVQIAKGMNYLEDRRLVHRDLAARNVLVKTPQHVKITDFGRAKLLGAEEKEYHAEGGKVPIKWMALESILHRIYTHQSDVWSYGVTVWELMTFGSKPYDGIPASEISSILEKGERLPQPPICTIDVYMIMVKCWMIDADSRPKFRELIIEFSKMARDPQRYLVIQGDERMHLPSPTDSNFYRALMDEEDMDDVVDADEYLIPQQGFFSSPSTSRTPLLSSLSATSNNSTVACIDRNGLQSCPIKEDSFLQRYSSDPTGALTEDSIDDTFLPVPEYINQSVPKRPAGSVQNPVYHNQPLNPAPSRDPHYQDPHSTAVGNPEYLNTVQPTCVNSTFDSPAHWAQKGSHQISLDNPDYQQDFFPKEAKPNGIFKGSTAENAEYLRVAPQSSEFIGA
Chain of EGFR L858R/T790M mutant Ba/F3 cells (P00533 whole entry T790M/L858R): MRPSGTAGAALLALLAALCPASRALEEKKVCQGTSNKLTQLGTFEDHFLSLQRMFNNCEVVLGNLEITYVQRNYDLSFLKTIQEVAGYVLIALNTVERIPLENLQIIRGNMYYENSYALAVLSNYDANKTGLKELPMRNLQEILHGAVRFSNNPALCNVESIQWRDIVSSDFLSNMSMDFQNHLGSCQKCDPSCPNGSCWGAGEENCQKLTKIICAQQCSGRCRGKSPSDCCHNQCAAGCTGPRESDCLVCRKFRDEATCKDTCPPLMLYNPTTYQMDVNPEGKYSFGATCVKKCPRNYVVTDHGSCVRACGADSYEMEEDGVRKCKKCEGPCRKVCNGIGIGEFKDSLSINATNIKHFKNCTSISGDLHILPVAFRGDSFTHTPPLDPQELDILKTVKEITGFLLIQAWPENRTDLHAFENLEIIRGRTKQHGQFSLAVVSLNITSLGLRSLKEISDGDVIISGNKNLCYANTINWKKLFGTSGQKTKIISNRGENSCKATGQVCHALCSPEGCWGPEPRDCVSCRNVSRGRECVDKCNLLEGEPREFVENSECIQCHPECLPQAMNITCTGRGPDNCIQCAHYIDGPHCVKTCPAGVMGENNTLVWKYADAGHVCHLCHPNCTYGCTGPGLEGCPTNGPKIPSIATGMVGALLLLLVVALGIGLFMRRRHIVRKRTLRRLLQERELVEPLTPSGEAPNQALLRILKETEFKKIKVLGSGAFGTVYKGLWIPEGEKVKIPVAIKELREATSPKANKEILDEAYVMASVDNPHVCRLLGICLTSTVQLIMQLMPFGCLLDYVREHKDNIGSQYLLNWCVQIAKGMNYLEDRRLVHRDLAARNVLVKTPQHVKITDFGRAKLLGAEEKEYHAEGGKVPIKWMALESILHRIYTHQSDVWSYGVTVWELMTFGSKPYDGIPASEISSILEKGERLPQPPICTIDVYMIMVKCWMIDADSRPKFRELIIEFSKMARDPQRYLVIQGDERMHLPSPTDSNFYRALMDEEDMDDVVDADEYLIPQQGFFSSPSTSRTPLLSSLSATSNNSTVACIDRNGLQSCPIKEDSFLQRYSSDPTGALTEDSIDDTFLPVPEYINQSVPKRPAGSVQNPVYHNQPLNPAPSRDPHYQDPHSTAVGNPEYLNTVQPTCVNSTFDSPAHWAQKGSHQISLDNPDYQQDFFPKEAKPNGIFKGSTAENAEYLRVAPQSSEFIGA
Chain of EGFR L858R/T790M (P00533 25-1210 T790M/L858R): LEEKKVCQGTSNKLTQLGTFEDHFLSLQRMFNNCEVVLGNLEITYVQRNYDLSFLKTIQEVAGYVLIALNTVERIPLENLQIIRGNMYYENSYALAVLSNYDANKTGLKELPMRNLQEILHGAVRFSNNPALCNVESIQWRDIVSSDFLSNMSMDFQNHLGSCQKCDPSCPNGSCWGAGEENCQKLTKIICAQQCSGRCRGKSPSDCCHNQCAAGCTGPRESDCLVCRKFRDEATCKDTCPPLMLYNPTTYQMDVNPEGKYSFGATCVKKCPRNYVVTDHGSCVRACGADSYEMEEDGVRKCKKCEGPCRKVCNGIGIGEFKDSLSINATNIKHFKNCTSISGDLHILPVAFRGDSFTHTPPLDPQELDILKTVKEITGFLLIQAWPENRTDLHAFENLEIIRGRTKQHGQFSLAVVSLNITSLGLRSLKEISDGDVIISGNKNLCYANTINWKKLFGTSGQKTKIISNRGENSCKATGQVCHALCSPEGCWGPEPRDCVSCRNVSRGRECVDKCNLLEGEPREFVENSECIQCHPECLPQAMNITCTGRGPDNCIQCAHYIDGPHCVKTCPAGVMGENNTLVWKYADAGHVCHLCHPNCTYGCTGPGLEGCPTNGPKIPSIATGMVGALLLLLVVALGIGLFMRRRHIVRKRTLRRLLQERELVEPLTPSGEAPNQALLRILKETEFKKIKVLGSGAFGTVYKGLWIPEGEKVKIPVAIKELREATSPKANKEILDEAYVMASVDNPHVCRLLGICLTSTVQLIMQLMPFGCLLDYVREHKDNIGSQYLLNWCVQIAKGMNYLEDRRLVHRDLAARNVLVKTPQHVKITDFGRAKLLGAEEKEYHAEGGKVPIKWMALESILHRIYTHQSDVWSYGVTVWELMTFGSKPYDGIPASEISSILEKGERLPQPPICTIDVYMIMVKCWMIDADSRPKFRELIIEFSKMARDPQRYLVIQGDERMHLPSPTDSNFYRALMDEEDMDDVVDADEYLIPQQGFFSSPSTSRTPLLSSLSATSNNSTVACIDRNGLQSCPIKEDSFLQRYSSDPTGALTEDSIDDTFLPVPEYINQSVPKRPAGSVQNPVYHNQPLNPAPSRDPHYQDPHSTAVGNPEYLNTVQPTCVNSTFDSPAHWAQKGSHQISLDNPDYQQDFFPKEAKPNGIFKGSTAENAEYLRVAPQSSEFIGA

Row | IC50 (EGFR L858R/T790M) | IC50 (EGFR L858R) | GI50 [1, 2] | GI50 [1, 3] | SMILES
1 | 0.6 nM | 2 nM | 20 nM | 1260 nM | CN1CCC(c2ccc(-c3ccc4c(=O)n(C(C(=O)Nc5nccs5)c5ccccc5)cc(F)c4c3)cc2)CC1 (stereo not shown) [Compound 022, 2-(4-Fluoro-6-(4-(1-methylpiperidin-4-yl)phenyl)-1-oxoisoquinolin-2(1H)-yl)-2-phenyl-N-(thiazol-2-yl)acetamide]
2 | 3 nM | 7 nM | 110 nM | 2410 nM | CN1CCN(c2ccc(-c3ccc4c(=O)n(C(C(=O)Nc5nccs5)c5ccccc5)cc(F)c4c3)cc2)CC1 (stereo not shown) [Compound 023, 2-(4-Fluoro-6-(4-(4-methylpiperazin-1-yl)phenyl)-1-oxoisoquinolin-2(1H)-yl)-2-phenyl-N-(thiazol-2-yl)-acetamide]
3 | 1 nM | 7 nM | 90 nM | 1770 nM | CN1CCC(c2ccc(-c3ccc4ccn(C(C(=O)Nc5nccs5)c5cccc(F)c5)c(=O)c4c3)cc2)CC1 (stereo not shown) [Compound 024, 2-(3-Fluorophenyl)-2-(7-(4-(1-methylpiperidin-4-yl)phenyl)-1-oxoisoquinolin-2(1H)-yl)-N-(thiazol-2-yl)-acetamide]
4 | 3 nM | 5 nM | 20 nM | 900 nM | CN1CCC(c2ccc(-c3ccc4c(=O)n(C(C(=O)Nc5nccs5)c5cccc(F)c5)ccc4c3)cc2)CC1 (stereo not shown) [Compound 025, 2-(3-Fluorophenyl)-2-(6-(4-(1-methyl-piperidin-4-yl)phenyl)-1-oxo-isoquinolin-2(1H)-yl)-N-(thiazol-2-yl)-acetamide]
5 | 7 nM | 21 nM | 88 nM | 1580 nM | CN1CCC(c2ccc(-c3ccc4c(=O)n(C(C(=O)Nc5nccs5)c5cccc(F)c5)cnc4c3)cc2)CC1 (stereo not shown) [Compound 028, 2-(3-Fluorophenyl)-2-(7-(4-(1-methyl-piperidin-4-yl)phenyl)-4-oxo-quinazolin-3(4H)-yl)-N-(thiazol-2-yl)-acetamide]
6 | 18 nM | 91 nM | 560 nM | 3450 nM | CN1CCN(c2ccc(-c3ccc4c(=O)n(C(C(=O)Nc5nccs5)c5cccc(F)c5)cnc4c3)cc2)CC1 (stereo not shown) [Compound 029, 2-(3-Fluorophenyl)-2-(7-(4-(4-methyl-piperazin-1-yl)phenyl)-4-oxo-quinazolin-3(4H)-yl)-N-(thiazol-2-yl)-acetamide]
7 | 1 nM | 7 nM | 4 nM | 800 nM | CN1CCC(c2ccc(-c3ccc4ncn(C(C(=O)Nc5nccs5)c5cccc(F)c5)c(=O)c4c3)cc2)CC1 (stereo not shown) [Compound 030, 2-(3-Fluorophenyl)-2-(6-(4-(1-methyl-piperidin-4-yl)phenyl)-4-oxo-quinazolin-3(4H)-yl)-N-(thiazol-2-yl)-acetamide]
8 | 0.2 nM | 2 nM | 10 nM | 1350 nM | CN1CCN(c2ccc(-c3ccc4ncn(C(C(=O)Nc5nccs5)c5cccc(F)c5)c(=O)c4c3)cc2)CC1 (stereo not shown) [Compound 031, 2-(3-Fluorophenyl)-2-(6-(4-(4-methyl-piperazin-1-yl)phenyl)-4-oxo-quinazolin-3(4H)-yl)-N-(thiazol-2-yl)-acetamide]
9 | 0.4 nM | 4 nM | 21 nM | 1580 nM | CN1CCC(c2ccc(-c3ccc4ncn(C(C(=O)Nc5ccccn5)c5cccc(F)c5)c(=O)c4c3)cc2)CC1 (stereo not shown) [Compound 032, 2-(3-Fluorophenyl)-2-(6-(4-(1-methyl-piperidin-4-yl)phenyl)-4-oxo-quinazolin-3(4H)-yl)-N-(pyridin-2-yl)-acetamide]
10 | 2 nM | 51 nM | 44 nM | 1550 nM | CN1CCN(c2ccc(-c3ccc4ncn(C(C(=O)Nc5ccccn5)c5cccc(F)c5)c(=O)c4c3)cc2)CC1 (stereo not shown) [Compound 033, 2-(3-Fluorophenyl)-2-(6-(4-(4-methyl-piperazin-1-yl)phenyl)-4-oxo-quinazolin-3(4H)-yl)-N-(pyridin-2-yl)-acetamide]
11 | 18 nM | > 1000 nM | 1800 nM | > 10000 nM | O=C(Nc1ccccn1)C(c1cccc(F)c1)n1cnc2ccc(Br)cc2c1=O (stereo not shown) [Compound 034, 2-(6-Bromo-4-oxoquinazolin-3(4H)-yl)-2-(3-fluorophenyl)-N-(pyridin-2-yl)acetamide]
12 | 11 nM | 101 nM | 350 nM | > 10000 nM | O=C(Nc1nccs1)C(c1ccccc1)n1cc(F)c2ccc(Br)cc2c1=O (stereo not shown) [Compound 035, 2-(7-Bromo-4-fluoro-1-oxo-isoquinolin-2(1H)-yl)-2-phenyl-N-(thiazol-2-yl)acetamide]
13 | 0.3 nM | 4 nM | 23 nM | 920 nM | CN1CCC(c2ccc(-c3ccc4c(F)cn(C(C(=O)Nc5nccs5)c5ccccc5)c(=O)c4c3)cc2)CC1 (stereo not shown) [Compound 036, 2-(4-Fluoro-7-(4-(1-methylpiperidin-4-yl)phenyl)-1-oxoisoquinolin-2(1H)-yl)-2-phenyl-N-(thiazol-2-yl)acetamide]
14 | 1 nM | 8 nM | 22 nM | 2650 nM | CN1CCN(c2ccc(-c3ccc4c(F)cn(C(C(=O)Nc5nccs5)c5ccccc5)c(=O)c4c3)cc2)CC1 (stereo not shown) [Compound 037, 2-(4-Fluoro-7-(4-(4-methylpiperazin-1-yl)phenyl)-1-oxoisoquinolin-2(1H)-yl)-2-phenyl-N-(thiazol-2-yl)-acetamide]
15 | 2 nM | 9 nM | 57 nM | 1860 nM | CN1CCC(c2ccc(-c3ccc4ncn(C(C(=O)Nc5ccccn5)c5ccccc5)c(=O)c4c3)cc2)CC1 (stereo not shown) [Compound 038, 2-(6-(4-(1-Methylpiperidin-4-yl)-phenyl)-4-oxaquinazolin-3(4H)-yl)-2-phenyl-N-(pyridin-2-yl)acetamide]
16 | 9 nM | 191 nM | 76 nM | 1780 nM | CN1CCN(c2ccc(-c3ccc4ncn(C(C(=O)Nc5ccccn5)c5ccccc5)c(=O)c4c3)cc2)CC1 (stereo not shown) [Compound 039, 2-(6-(4-(4-Methylpiperazin-1-yl)-phenyl)-4-oxoquinazolin-3(4H)-yl)-2-phenyl-N-(pyridin-2-yl)acetamide]
17 | 31 nM | > 1000 nM | > 10000 nM | > 10000 nM | O=C(Nc1nccs1)C(c1ccccc1)n1ncc2ccc(Br)cc2c1=O (stereo not shown) [Compound 041, 2-(7-Bromo-1-oxophthalazin-2(1H)-yl)-2-phenyl-N-(thiazol-2-yl)-acetamide]

Row | SMILES | IC50 (EGFR L858R/T790M) | IC50 (EGFR L858R) | GI50 [1, 2] | GI50 [1, 3]
18 | CN1CCC(c2ccc(-c3ccc4c(=O)n(C(C(=O)Nc5nccs5)c5ccccc5)ncc4c3)cc2)CC1 (stereo not shown) [Compound 026, 2-(6-(4-(1-Methylpiperidin-4-yl)-phenyl)-1-oxophthalazin-2(1H)-yl)-2-phenyl-N-(thiazol-2-yl)acetamide] | 10 nM | 67 nM | 560 nM | 1220 nM
19 | CN1CCN(c2ccc(-c3ccc4c(=O)n(C(C(=O)Nc5nccs5)c5ccccc5)ncc4c3)cc2)CC1 (stereo not shown) [Compound 027, 2-(6-(4-(4-Methylpiperazin-1-yl)-phenyl)-1-oxophthalazin-2(1H)-yl)-2-phenyl-N-(thiazol-2-yl)acetamide] | 18 nM | 209 nM | 1700 nM | 3460 nM
